Assay results as given in ChEMBL document CHEMBL5661983, “The selective anaplastic lymphoma receptor tyrosine kinase inhibitor ASP3026 induces tumor regression and prolongs survival in non-small cell lung cancer model mice” (Mol Cancer Ther, 2014).

Legend:
[1] = Tmax in human NCI-H2228 cell xenografted NOD.CB17-Prkdcscid/J mouse tumor at 1 mg/kg/day for 5 days by HPLC-MS analysis; type: ADME, organism-based, Neoplasm; details: route po, time 5 day
[2] = AUC (0 to 24 hrs) in human NCI-H2228 cell xenografted NOD.CB17-Prkdcscid/J mouse plasma at 1 mg/kg/day for 5 days by HPLC-MS analysis; type: ADME, organism-based; details: route po, time 5 day
[3] = AUC (0 to 24 hrs) in human NCI-H2228 cell xenografted NOD.CB17-Prkdcscid/J mouse tumor at 1 mg/kg/day for 5 days by HPLC-MS analysis; type: ADME, organism-based, Neoplasm; details: in vivo, po, 120 h, time 5 day
[4] = Toxicity in human NCI-H2228 cell xenografted NOD.CB17-Prkdcscid/J mouse assessed as change in body weight at 10 mg/kg, po administered once daily for 5 days in presence of paclitaxel; type: organism-based; details: in vivo, 120 h, time 5 day
[5] = target: Epidermal growth factor receptor (Homo sapiens, UniProt P00533, L858R)
Epidermal growth factor receptor, sequence (P00533 25-1210 L858R limits assumed): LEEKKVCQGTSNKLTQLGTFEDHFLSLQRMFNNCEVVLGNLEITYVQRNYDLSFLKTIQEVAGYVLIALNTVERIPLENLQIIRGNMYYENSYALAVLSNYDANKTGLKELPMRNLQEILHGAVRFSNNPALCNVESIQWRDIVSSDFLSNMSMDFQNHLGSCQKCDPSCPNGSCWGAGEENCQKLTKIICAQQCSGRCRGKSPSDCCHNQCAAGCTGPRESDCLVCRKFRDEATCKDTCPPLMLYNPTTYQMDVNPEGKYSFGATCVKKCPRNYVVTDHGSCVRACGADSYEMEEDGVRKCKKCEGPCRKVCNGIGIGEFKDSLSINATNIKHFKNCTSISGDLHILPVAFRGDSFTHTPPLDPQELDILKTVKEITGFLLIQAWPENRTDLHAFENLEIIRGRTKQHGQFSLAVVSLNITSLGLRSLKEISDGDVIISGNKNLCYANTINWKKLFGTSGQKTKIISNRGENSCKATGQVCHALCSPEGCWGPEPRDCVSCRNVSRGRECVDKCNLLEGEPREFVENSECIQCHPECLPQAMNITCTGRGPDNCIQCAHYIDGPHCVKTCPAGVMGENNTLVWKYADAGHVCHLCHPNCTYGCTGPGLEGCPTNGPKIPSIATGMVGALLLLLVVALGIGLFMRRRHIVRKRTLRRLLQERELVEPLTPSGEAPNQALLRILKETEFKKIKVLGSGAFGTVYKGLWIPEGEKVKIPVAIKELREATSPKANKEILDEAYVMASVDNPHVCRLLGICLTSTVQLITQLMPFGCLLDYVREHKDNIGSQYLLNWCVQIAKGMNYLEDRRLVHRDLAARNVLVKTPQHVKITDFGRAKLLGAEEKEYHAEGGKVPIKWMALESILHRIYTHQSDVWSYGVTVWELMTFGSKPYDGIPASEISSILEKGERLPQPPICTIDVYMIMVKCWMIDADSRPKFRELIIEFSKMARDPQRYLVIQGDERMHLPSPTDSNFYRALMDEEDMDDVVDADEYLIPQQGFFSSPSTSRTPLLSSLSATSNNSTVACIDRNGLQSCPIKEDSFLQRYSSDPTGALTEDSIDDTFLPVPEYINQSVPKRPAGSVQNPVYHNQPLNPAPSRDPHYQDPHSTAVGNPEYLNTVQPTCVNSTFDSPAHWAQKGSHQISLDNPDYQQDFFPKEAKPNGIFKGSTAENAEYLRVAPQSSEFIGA

[6] = target: Ephrin type-B receptor 4 (Homo sapiens, UniProt P54760)
Ephrin type-B receptor 4, sequence (P54760 whole entry): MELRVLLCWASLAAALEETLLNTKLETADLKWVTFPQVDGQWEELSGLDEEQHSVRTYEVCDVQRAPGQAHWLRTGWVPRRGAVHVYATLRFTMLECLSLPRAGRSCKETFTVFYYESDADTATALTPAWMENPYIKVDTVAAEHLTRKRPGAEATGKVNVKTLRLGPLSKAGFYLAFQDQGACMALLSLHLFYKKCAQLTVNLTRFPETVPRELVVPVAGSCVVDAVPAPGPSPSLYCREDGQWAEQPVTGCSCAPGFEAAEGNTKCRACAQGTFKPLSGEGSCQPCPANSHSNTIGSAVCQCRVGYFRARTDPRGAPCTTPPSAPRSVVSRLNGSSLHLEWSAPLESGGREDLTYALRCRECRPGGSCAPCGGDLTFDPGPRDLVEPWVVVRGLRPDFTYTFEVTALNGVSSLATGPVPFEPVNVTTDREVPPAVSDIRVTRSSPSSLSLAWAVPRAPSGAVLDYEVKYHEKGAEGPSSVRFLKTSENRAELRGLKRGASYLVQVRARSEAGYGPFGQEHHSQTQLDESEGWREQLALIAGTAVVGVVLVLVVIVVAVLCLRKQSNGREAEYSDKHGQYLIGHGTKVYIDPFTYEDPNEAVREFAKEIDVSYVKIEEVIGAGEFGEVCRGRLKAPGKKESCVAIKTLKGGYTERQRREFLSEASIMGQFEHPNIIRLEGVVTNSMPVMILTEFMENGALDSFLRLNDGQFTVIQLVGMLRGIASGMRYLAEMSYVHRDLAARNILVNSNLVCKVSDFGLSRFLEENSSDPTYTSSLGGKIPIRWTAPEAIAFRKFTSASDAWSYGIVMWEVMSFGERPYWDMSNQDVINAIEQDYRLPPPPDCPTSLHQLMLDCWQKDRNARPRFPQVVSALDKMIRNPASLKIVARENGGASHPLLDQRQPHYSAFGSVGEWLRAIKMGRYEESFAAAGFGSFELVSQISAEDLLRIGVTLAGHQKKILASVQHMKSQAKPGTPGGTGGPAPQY

[7] = test system: NCI-H2228; assay: Antiproliferative activity against human NCI-H2228 cell spheroids assessed as reduction in cell growth measured after 5 days by celltiter-glo luminescent cell viability assay; type: functional, cell-based; details: NCI-H2228, 120 h
[8] = target: Tyrosine-protein kinase FRK (Homo sapiens, UniProt P42685)
Tyrosine-protein kinase FRK, sequence (P42685 whole entry): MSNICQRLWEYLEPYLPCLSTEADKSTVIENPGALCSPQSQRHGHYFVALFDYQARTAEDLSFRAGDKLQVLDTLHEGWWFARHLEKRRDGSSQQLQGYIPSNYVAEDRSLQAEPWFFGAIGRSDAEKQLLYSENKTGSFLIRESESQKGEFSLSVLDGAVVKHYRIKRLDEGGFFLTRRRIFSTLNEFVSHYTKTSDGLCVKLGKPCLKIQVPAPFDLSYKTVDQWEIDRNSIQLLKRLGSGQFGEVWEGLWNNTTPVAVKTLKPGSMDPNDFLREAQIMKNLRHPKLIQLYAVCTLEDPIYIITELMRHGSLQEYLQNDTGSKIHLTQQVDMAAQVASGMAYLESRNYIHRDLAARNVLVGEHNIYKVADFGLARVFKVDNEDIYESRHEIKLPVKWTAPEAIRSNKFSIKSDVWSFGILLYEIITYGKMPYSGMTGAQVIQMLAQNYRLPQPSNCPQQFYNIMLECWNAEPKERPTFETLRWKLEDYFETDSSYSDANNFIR

[9] = AUC (0 to 24 hrs) in human NCI-H2228 cell xenografted NOD.CB17-Prkdcscid/J mouse tumor at 10 mg/kg/day for 5 days by HPLC-MS analysis; type: ADME, organism-based, Neoplasm; details: in vivo, po, 120 h, time 5 day
[10] = target: Non-receptor tyrosine-protein kinase TNK1 (Homo sapiens, UniProt Q13470)
Non-receptor tyrosine-protein kinase TNK1, sequence (Q13470 whole entry): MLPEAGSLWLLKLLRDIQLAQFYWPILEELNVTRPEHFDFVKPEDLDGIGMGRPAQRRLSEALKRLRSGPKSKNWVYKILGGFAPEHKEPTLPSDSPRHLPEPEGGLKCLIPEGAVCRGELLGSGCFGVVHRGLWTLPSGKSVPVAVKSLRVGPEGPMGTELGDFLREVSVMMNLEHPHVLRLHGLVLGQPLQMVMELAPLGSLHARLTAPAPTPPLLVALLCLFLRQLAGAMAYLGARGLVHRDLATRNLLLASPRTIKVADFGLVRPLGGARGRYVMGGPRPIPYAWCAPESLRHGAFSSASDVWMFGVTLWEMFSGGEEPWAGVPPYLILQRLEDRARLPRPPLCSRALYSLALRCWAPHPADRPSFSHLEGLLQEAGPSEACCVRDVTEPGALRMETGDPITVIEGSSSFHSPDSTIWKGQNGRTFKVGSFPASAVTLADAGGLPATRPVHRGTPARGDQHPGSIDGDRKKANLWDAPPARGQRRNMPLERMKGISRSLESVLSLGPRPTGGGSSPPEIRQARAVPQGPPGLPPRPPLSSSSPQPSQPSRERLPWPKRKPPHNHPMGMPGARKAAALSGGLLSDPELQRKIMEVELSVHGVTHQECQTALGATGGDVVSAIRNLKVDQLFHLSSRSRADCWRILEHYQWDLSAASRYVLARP

[11] = Tmax in human NCI-H2228 cell xenografted NOD.CB17-Prkdcscid/J mouse tumor at 10 mg/kg/day for 5 days by HPLC-MS analysis; type: ADME, organism-based, Neoplasm; details: route po, time 5 day
[12] = target: Hepatocyte growth factor receptor (Homo sapiens, UniProt P08581); assay: Inhibition of human N-terminal GST-fused MET cytoplasmic domain ([956 to 1390(end) residues) expressed in baculovirus expression system using Srctide as substrate measured after 1 hr by off-chip mobility shift assay relative to control
[13] = Cmax in human NCI-H2228 cell xenografted NOD.CB17-Prkdcscid/J mouse plasma at 10 mg/kg/day for 5 days by HPLC-MS analysis; type: ADME, organism-based; details: route po, time 5 day
[14] = Cmax in human NCI-H2228 cell xenografted NOD.CB17-Prkdcscid/J mouse tumor at 3 mg/kg/day for 5 days by HPLC-MS analysis; type: ADME, organism-based, Neoplasm; details: route po, time 5 day
[15] = target: Tyrosine-protein kinase JAK2 (Homo sapiens, UniProt O60674)
[16] = target: NPM/ALK (Nucleophosmin/ALK tyrosine kinase receptor) (Homo sapiens, UniProt Q9UM73)
[17] = target: T1, ALK tyrosine kinase receptor (Homo sapiens, UniProt Q9UM73); assay: Inhibition of ALK in human NCI-H2228 cells assessed as reduction in AKT phosphorylation by measuring phosphorylated AKT level at 1000 nmol/L measured after 4 hrs by Western blot analysis relative to control; type: cell-based; set-up: scale not given: the % may be the effect or the level left
T1 sequence (Q9UM73 19-1620 limits assumed): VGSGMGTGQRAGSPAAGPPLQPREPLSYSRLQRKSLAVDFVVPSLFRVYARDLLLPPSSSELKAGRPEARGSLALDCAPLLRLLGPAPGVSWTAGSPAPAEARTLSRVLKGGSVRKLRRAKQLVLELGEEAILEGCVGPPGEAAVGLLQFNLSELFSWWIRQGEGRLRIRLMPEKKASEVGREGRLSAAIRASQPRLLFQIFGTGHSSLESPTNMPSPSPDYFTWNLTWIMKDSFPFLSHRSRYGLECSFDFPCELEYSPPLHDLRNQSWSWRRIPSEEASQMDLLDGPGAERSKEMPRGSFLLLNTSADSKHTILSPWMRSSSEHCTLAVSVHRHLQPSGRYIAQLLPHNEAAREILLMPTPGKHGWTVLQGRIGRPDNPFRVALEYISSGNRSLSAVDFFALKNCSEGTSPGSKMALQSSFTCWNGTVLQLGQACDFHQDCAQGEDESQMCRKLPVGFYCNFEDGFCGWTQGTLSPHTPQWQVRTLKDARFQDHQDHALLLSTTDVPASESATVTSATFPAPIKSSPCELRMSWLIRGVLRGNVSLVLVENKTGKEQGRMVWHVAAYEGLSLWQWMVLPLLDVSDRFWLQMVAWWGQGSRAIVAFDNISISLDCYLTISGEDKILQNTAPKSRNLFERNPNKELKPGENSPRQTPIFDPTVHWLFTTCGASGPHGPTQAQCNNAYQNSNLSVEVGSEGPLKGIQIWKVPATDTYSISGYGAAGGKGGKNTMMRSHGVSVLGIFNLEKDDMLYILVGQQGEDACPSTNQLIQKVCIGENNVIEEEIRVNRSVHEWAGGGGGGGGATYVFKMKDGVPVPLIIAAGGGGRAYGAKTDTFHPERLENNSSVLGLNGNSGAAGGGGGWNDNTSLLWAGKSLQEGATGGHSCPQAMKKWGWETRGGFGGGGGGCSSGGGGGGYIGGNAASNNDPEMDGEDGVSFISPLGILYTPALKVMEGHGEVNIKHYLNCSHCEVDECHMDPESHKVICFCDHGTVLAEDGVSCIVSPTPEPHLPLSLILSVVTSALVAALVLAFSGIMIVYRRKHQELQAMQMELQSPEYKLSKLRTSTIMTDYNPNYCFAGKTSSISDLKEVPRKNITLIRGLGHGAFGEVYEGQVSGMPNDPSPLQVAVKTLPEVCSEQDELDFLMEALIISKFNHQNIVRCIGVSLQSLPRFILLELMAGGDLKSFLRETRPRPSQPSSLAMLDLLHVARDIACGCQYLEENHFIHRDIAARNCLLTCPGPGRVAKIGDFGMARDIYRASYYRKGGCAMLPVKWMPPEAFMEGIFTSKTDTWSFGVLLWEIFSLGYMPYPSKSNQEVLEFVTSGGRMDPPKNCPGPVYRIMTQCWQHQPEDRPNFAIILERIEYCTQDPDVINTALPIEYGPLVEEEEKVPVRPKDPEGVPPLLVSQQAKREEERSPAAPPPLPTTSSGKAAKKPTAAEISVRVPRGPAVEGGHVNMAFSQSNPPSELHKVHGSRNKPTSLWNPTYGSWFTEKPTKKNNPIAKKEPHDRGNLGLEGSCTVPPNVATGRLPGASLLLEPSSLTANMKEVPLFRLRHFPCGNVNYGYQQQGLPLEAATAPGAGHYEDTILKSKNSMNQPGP

[18] = target: T1, ALK tyrosine kinase receptor; assay: Inhibition of ALK phosphorylation in human NCI-H2228 cells assessed as phosphorylated ALK level at 100 nmol/L measured after 4 hrs by Western blot analysis relative to control; type: cell-based; set-up: scale not given: the % may be the effect or the level left
[19] = target: T1, ALK tyrosine kinase receptor; assay: Inhibition of ALK in human NCI-H2228 cells assessed as reduction in AKT phosphorylation by measuring phosphorylated AKT level at 100 nmol/L measured after 4 hrs by Western blot analysis relative to control; type: cell-based; set-up: scale not given: the % may be the effect or the level left
[20] = target: T1, ALK tyrosine kinase receptor; assay: Inhibition of ALK in human NCI-H2228 cells assessed as reduction in STAT3 phosphorylation by measuring phosphorylated STAT3 level at 1000 nmol/L measured after 4 hrs by Western blot analysis relative to control; type: cell-based; set-up: scale not given: the % may be the effect or the level left
[21] = Tmax in human NCI-H2228 cell xenografted NOD.CB17-Prkdcscid/J mouse plasma at 10 mg/kg/day for 5 days by HPLC-MS analysis; type: ADME, organism-based; details: route po, time 5 day
[22] = Tmax in human NCI-H2228 cell xenografted NOD.CB17-Prkdcscid/J mouse tumor at 3 mg/kg/day for 5 days by HPLC-MS analysis; type: ADME, organism-based, Neoplasm; details: route po, time 5 day
[23] = Ratio of Cmax in human NCI-H2228 cell xenografted NOD.CB17-Prkdcscid/J mouse tumor to plasma at 10 mg/kg/day for 5 days by HPLC-MS analysis; type: ADME, organism-based; details: tumor and plasma, route po, time 5 day
[24] = Toxicity in human NCI-H2228 cell xenografted NOD.CB17-Prkdcscid/J mouse assessed as change in body weight at 100 mg/kg, po administered twice daily for 14 days; type: organism-based; details: in vivo, 336 h, time 14 day
[25] = target: Tyrosine-protein kinase Mer (Homo sapiens, UniProt Q12866)
[26] = Toxicity in human NCI-H2228 cell xenografted NOD.CB17-Prkdcscid/J mouse assessed as change in body weight at 10 mg/kg, po administered once daily for 5 days in presence of pemetrexed; type: organism-based; details: in vivo, 120 h, time 5 day
[27] = Selectivity ratio of IC50 for inhibition of EML4-ALK L1196M mutant (unknown origin) expressed in mouse 3T3 cells assessed as growth inhibition to IC50 for Inhibition of EML4-ALK (unknown origin) expressed in mouse 3T3 cells assessed as growth inhibition; set-up: species or system Homo sapiens; details: condition non-small cell lung carcinoma
[28] = target: High affinity nerve growth factor receptor (Homo sapiens, UniProt P04629)
[29] = target: Ephrin type-A receptor 2 (Homo sapiens, UniProt P29317)
[30] = Cmax in human NCI-H2228 cell xenografted NOD.CB17-Prkdcscid/J mouse plasma at 3 mg/kg/day for 5 days by HPLC-MS analysis; type: ADME, organism-based; details: route po, time 5 day
[31] = test system: NCI-H2228-Luc; assay: Antitumor activity against human NCI-H2228-Luc cells intrapleurally xenografted in NOD.CB17-Prkdcscid/J mouse assessed as median survival time at 10 mg/kg, po administered once daily for 7 weeks starting from 14 days post-cell inoculation measured up to 90 days (reference value: 39 day); type: functional; details: time 90 day
[32] = AUC (0 to 24 hrs) in human NCI-H2228 cell xenografted NOD.CB17-Prkdcscid/J mouse tumor at 3 mg/kg/day for 5 days by HPLC-MS analysis; type: ADME, organism-based, Neoplasm; details: in vivo, po, 120 h, time 5 day
[33] = test system: NCI-H2228; assay: Antitumor activity against human NCI-H2228 cells xenografted in NOD.CB17-Prkdcscid/J mouse assessed as tumor regression at 30 mg/kg, po administered once daily for 2 weeks relative to control; type: functional
[34] = target: ALK tyrosine kinase receptor (Homo sapiens, UniProt Q9UM73, R1275Q)
ALK tyrosine kinase receptor (Homo sapiens, UniProt Q9UM73, R1275Q), sequence (Q9UM73 19-1620 R1275Q limits assumed): as the sequence (Q9UM73 19-1620 limits assumed) above, with R1257Q counted along it

## COc1cc(N2CCC(N3CCN(C)CC3)CC2)ccc1Nc1ncnc(Nc2ccccc2S(=O)(=O)C(C)C)n1 [ASP-3026]
[1]
  Tmax: 4 h
[2]
  AUC at 120 h: 630 ng·h/mL
[3]
  AUC: 13600 ng·h/g
[4]
  Activity: Non-Toxic
[5]
  IC50: 86 nM
[6]
  IC50: > 1000 nM
[7]
  IC50: 64.8 nM
[8]
  IC50: 40 nM
[9]
  AUC: 121000 ng·h/g
[10]
  IC50: 26.8 nM
[11]
  Tmax: 4 h
[12]
  IC50: > 1000 nM
[13]
  Cmax: 508 ng/mL
[14]
  Cmax: 2270 ng/g
[15]
  IC50: > 1000 nM
[16]
  IC50: 6.8 nM
[17]
  Activity: 20%
[18]
  Activity: 37%
[19]
  Activity: 56%
[20]
  Activity: 46%
[21]
  Tmax: 4 h
[22]
  Tmax: 4 h
[23]
  Kp at 120 h: 18
[24]
  Activity: Non-Toxic
[25]
  IC50: > 1000 nM
[26]
  Activity: Non-Toxic
[27]
  Ratio IC50: 3.9
[28]
  IC50: > 1000 nM
[29]
  IC50: > 1000 nM
[30]
  Cmax: 140 ng/mL
[31]
  MST: 79 days
[32]
  AUC: 34400 ng·h/g
[33]
  Activity: 78%
[34]
  IC50: 5.4 nM
